Test results as given in PMC3461044, “Probing Protein Sequences as Sources for Encrypted Antimicrobial Peptides” (PLoS ONE, 2012).
No end group written: not given here.

Assays:
[1] = system: Xanthomonas axonopodis pv. glycines; conditions: for 1/(log(MICs (mM)), Xanthomonas axonopodis pv. glycines): from MIC, 0 where no detectable activity; for MIC, Xanthomonas axonopodis pv. glycines: serial 2-fold dilutions, 96-well, inoculum ~10^5 CFU/mL, highest 256 µg/mL, 48 h, OD600, NDA = Non-detectable activity
Method: MICs were determined using the M7-A6 protocol from the Clinical Laboratory Standards Institute (CLSI). […] Initial bacterium inoculum of ∼10^5 colony forming units/mL were transferred, along with serial 2-fold dilutions of each peptide to 96-well plates and incubated for 12 h. […] For each peptide concentration, optical density (OD600) readings were subtracted from that of the growth medium and divided by the positive control (100% bacterial growth). Inhibitory assays for X. axonopodis pv. glycines were conducted by the same methodology with longer incubation time (48 h).

[2] = system: Escherichia coli ATCC 25922; type: cell-based; conditions: for MIC, Escherichia coli: Mueller-Hinton broth, serial 2-fold dilutions, inoculum ~10^5 CFU/mL, highest 256 µg/mL, 12 h, OD600, NDA = Non-detectable activity; for 1/(log(MICs (mM)), Escherichia coli): from MIC, 0 where no detectable activity
Method: (§1) MICs were determined using the M7-A6 protocol from the Clinical Laboratory Standards Institute (CLSI). Escherichia coli ATCC 25922, Pseudomonas aeruginosa ATCC 27853, Staphylococcus aureus ATCC 29313 were streaked in Mueller-Hinton agar, grown overnight at 37°C, transferred to Mueller-Hinton broth and incubated until readings at 600 nm reached the equivalent of 0.5 in the MacFarland scale. […]. Inhibitory assays for X. axonopodis pv. glycines were conducted by the same methodology with longer incubation time (48 h).

[3] = system: Pseudomonas aeruginosa ATCC 27853; type: cell-based; conditions: for MIC, Pseudomonas aeruginosa: Mueller-Hinton broth, serial 2-fold dilutions, inoculum ~10^5 CFU/mL, highest 256 µg/mL, 12 h, OD600, NDA = Non-detectable activity; for 1/(log(MICs (mM)), Pseudomonas aeruginosa): from MIC, 0 where no detectable activity
Method: as §1

[4] = system: Staphylococcus aureus ATCC 29313; type: cell-based; conditions: for MIC, Staphylococcus aureus: Mueller-Hinton broth, serial 2-fold dilutions, inoculum ~10^5 CFU/mL, highest 256 µg/mL, 12 h, OD600, NDA = Non-detectable activity; for 1/(log(MICs (mM)), Staphylococcus aureus): from MIC, 0 where no detectable activity
Method: as §1

[5] = Far UV circular dichroism of peptides in buffer (MRE, α-helix percentage); type: physicochemical; conditions: for [q]208 nm Buffer (Greenfield 69): Mean Residue Ellipticity at 208 nm; for [q]208 nm Buffer (Greenfield 69) / [q]222 nm Buffer (Chen 74): peptide in buffer, far UV CD; for [q]222 nm Buffer (Chen 74): Mean Residue Ellipticity at 222 nm; for % Helicity (Buffer) (Greenfield 69): from [q]208 nm, methodology of Greenfield et al. 1969; for % Helicity (Buffer) (Chen 74): from [q]222 nm, methodology of Chen et al. 1974
Method: Far UV CD spectra were acquired for peptides at 20 µM in buffer and in the presence of DMPC or 2∶1 DMPC:DMPG LUVs at 1 mol% peptide/phospholipids. Peptides presented different degrees of secondary structures upon LUVs addition. […] Following the addition of LUVs, some peptides changed conformation resulting in spectral features characteristic of α-helical structures.
Experiments were conducted on a Jasco-J810 spectropolarimeter (Jasco International Co., Japan). Spectra were acquired at room temperature from 194 to 260 nm as an average of 4 readings using a 0.1 cm path length cell, data pitch of 0.2 nm and a response time of 0.5 s. Data Scans of buffer and 2 mM DMPC and 2∶1 DMPC:DMPG LUVs solutions were acquired and subtracted from each peptide data. Peptides were scanned at a concentration of 20 µM in buffer and then 100 fold excess of DMPC and 2∶1 DMPC:DMPG LUVs were added, resulting in a molar ratio of 0.01 peptide/phospholipids. […] Proximity to equilibrium was verified by scanning peptides added with twice the LUVs concentration, approximately 4 mM.

Sequence	1/(log(MICs (mM)), Xanthomonas axonopodis pv. glycines) [1]	MIC, Xanthomonas axonopodis pv. glycines [1]	MIC, Escherichia coli [2]	1/(log(MICs (mM)), Escherichia coli) [2]	MIC, Pseudomonas aeruginosa [3]	1/(log(MICs (mM)), Pseudomonas aeruginosa) [3]	MIC, Staphylococcus aureus [4]	1/(log(MICs (mM)), Staphylococcus aureus) [4]	[q]208 nm Buffer (Greenfield 69) [5]	[q]222 nm Buffer (Chen 74) [5]	% Helicity (Buffer) (Greenfield 69) [5]	% Helicity (Buffer) (Chen 74) [5]
SLWKNLSRKISGAVKAQPDLHTLLPLPGS [Q9XEY7(120–148), putative IAP; fragment of Trehalase 1 GMTRE1, Glycine max]	0	NDA	NDA	0	NDA	0	NDA	0	-11377	-2931	25.4%	8.3%
GLNTLKKVIQGLHEVIKLVNNHA [Pseudin B, reference compound]	–	<2 µM	–	–	–	–	–	–	–	–	–	–
KLKKLLAGQKDGLLGQIAAMSDLYTKK [P94692(929–955), putative IAP; fragment of Pyruvate-ferredoxin oxidoreductase, Desulfovibrio africanus]	0	NDA	NDA	0	NDA	0	NDA	0	-6507	-2066	8.6%	5.9%
GVLDILKGAAKDLAGHVATKVINKI [Syphaxin, reference compound]	–	25 µM	–	–	–	–	–	–	–	–	–	–
GLKDMIKNLAKEAAVKLAGAVINKFSPQPQ [Nattererin-1, reference compound]	–	<1 µM	–	–	–	–	–	–	–	–	–	–
GLWSTIKQKGKE [DS 01 (1–12), fragment 1–12 of DS 01, Phyllomedusa oreades, reference compound]	0	NDA	NDA	0	NDA	0	NDA	0	-9158	-2137	17.8%	6.1%
LRPAILVRVKGKGL [Hyposin HA-6, reference compound]	–	42 µM	–	–	–	–	–	–	–	–	–	–
GKFHQIKKMFLSVGVKVTSLKRIQFGDF [A5LDU0(184–211)]	–	10 µM	–	–	–	–	–	–	–	–	–	–
FKALRALRLEDLRIPTSYIK [A3KLW0(117–136), putative IAP; fragment of Rubisco large chain, Anisophyllea pomifera]	0	NDA	NDA	0	NDA	0	NDA	0	-11457	-3442	25.7%	9.8%
GIGDILKNLAKAAGKAALHAVGESL [HSP-4, reference compound]	–	<2 µM	–	–	–	–	–	–	–	–	–	–
FVTNSKRLAEGIEKGVGNSILIKVN [Q8KG25(327–351), putative IAP; fragment of Enolase 2, Chlorobium tepidum]	0	NDA	NDA	0	NDA	0	NDA	0	-7856	-6669	13.3%	18.9%
FFFDTLKNLAGKVIGALT [Phes, reference compound]	–	33 µM	–	–	–	–	–	–	–	–	–	–
FINKAGKLQSQLRTTVVAAAAFLDAFQKVA [O43312(33–62)]	–	80 µM	–	–	–	–	–	–	–	–	–	–
